The values below come from a melting point compilation (Tetko et al.; mined from patent text by program, amines drawn as free bases though some values may be those of a salt).

Molecules are shown by their SMILES. Residues, ends and D or L forms follow the SMILES beside them. *: point of attachment. Boc = CC(C)(C)OC(=O)*

Regarding `COC(=O)CS(=O)(=O)NOC[C@@H]1NC(=O)[C@@H]1NC(=O)OC(C)(C)C` (relative stereo), the melting point (as a rule, the temperature, or range, at which the solid turns liquid) lay within 128 to 129 °C.

`NC(=O)C1CCc2ccccc2O1` (stereo not given) showed a melting point of 125 to 127 °C.

`COCCOCC(=O)C1CCC2C3CCC4CC(O)CCC4(C)C3C(=O)CC12C` (stereo not given) returned a melting point of 115 to 121 °C.

`O=c1sc2cc(C(F)(F)F)cc([N+](=O)[O-])c2s1` had a melting point of 110 to 111 °C.

Molecule `CCOCc1nc2c(N)nc3cc(-n4ccnc4)ccc3c2n1CCCOC` showed a melting point of 168 to 169 °C.

On to `c1cc(C2=NCCS2)nc(C2OCCO2)c1`, for which the melting point lay within 50 to 52 °C.

In turn, `CC(=O)C(CCCc1ccccc1)n1ncc2c(=O)[nH]c(Cc3ccc(-c4cccnc4)cc3)nc21` (stereo not given) gave a melting point of 108 °C.

`Cc1nc(N)nc(N)c1-c1cc(NS(C)(=O)=O)ccc1Cl`: the melting point lay within 234 to 240 °C.

`O=C(O)Cc1cccc2c(-c3ccc(Cl)cc3)nccc12` yielded a melting point of 234 to 236 °C.

Turning to `CCN(CC)c1cccc(-c2ccc(C(=O)O)c(=O)[nH]2)c1`, the melting point was 256 to 258 °C.

The molecule `Cc1ccc(CNc2nc(Nc3cccc(C(F)(F)F)c3)nc(OCC(F)(F)F)n2)o1` registered a melting point of 72 to 74 °C.

Consider `COc1cc2c(nc1OC)c(-c1cc3c(Cl)c(F)cnc3[nH]1)cn2CCN1CCOCC1`, for which the melting point was 206 °C.

`O=C1c2ccc([N+](=O)[O-])cc2COc2cc(-n3cnnn3)ccc21` had a melting point of 123 to 126 °C.

The molecule `COc1c(Cl)cc(Cl)c(OC)c1C(=O)O` gave a melting point of 98 to 100 °C.

`NC(=O)c1csc(-c2cc3c(Oc4ccc(Cl)cc4)cncc3s2)n1` gave a melting point of 215 to 218 °C.

Turning to `Oc1ccc2nc(-c3cccc4c(O)cccc34)oc2c1`, the melting point lay in the range of 240 to 242 °C.

Consider `COC(=O)C1=NNC(C)=C(C(=O)OC(C)C)C1c1cccc([N+](=O)[O-])c1` (stereo not given), for which the melting point came out at 193 °C.

Regarding `CS(=O)(=O)c1ccc(-c2cc(/C=C\CCO[N+](=O)[O-])nn2C2CCCCC2)cc1`, the melting point lay in the range of 129 to 130 °C.

Molecule `Oc1ccc(F)cc1Cc1ccc(F)cc1` came in with a melting point of 134 to 139 °C.

In the case of `C=CCN(C(=O)Nc1cc(C)c(S(=O)(=O)C[N+](=O)[O-])c(C)c1)c1ccccc1`, the melting point was in the range of 164 to 165 °C.

The molecule `CCOC(=O)CNC(=O)C1(N(C(=O)c2ccc(N)cc2)N2CCCCC2)CCCCC1` gave a melting point of 92 to 96 °C.

As to `Cc1noc2cc3c(cc12)C1(CO3)C(=O)N(Cc2ccc(C(F)(F)F)o2)c2ccccc21` (stereo not given), the melting point was 111 to 112 °C.

The molecule `CCCCCN(CCCCC)C(=O)C(Cc1ccc(OCC(=O)O)c(C(=O)O)c1)NC(=O)C(Cc1ccccc1)NC(=O)OC(C)(C)C` (stereo not given) had a melting point of 87 to 90 °C.

Molecule `CCCCCCCCCCCC(=O)Oc1ccc2[nH]c3c(C)c4ccncc4c(C)c3c2c1` showed a melting point of 188 to 190 °C.

`CS(=O)(=O)c1sccc1S(N)(=O)=O`: the melting point was 242 to 244 °C.

`CC(=O)NC[C@H]1CN(c2ccc(C3CCNCC3)c(F)c2)C(=O)O1` displayed a melting point of 109 to 110 °C.

In turn, `COC(=O)CCCOc1ccc2ccc(O)cc2c1` gave a melting point of 122 to 125 °C.

For `C[Si](C)(C)CCSCCCNC(=O)n1cc(F)c(=O)[nH]c1=O`, the melting point was 114 to 115 °C.

The molecule `COc1nc(C)c(N2CCCn3c2nc2c(C#N)ccc(C(OC(F)F)C(F)(F)F)c23)c(C)n1` (stereo not given) returned a melting point of 250 to 252 °C.

Consider `NC(=O)CNC(=O)c1cc2c(Oc3ccc(Cl)cc3)cncc2s1`, for which the melting point fell in the range of 222 to 225 °C.

Molecule `CC(=O)SC(CC(=S)c1ccc(-c2ccccc2)cc1)C(=O)O` (stereo not given) gave a melting point of 116 to 118 °C.

Molecule `Oc1[nH]nc2c1-c1ccc(Cl)cc1CC2` registered a melting point of 232 to 233 °C.

For the molecule `Cc1cc(NC(=O)C(C)(O)COc2cccc(C(F)(F)F)c2)ccc1[N+](=O)[O-]` (stereo not given), the melting point lay within 84 to 87 °C.

Turning to `CC1SC(=O)NN=C1c1ccc2c(c1)C(=Cc1cccs1)C(=O)N2` (stereo not given), the melting point is 287 °C.

`CC(C)N1CCN(c2ccc(-c3[nH]nc4c3C(=O)c3c(NC(=O)NN5CCOCC5)cccc3-4)cc2)CC1`: the melting point is 253 °C.

As for `O=C(Nc1ccc(OCCCN2CCC3(CC2)OCCO3)c2ccccc12)c1cc(F)cc(N2CCCCC2)c1`, the melting point lay in the range of 70 to 72 °C.

Take `CCOC(=O)/C=C/c1nc(COc2ccc(COc3nn(-c4ccccc4)cc3C=O)cc2OC)c(C)o1`: the melting point fell in the range of 150 to 151 °C.

`CCOC(=O)C=Cc1ccc2c(c1)CC(NC(=O)OC(C)(C)C)CC2` (stereo not given) had a melting point of 99 to 100 °C.

In the case of `CNC(=O)c1cccc(C2=NC(C)(C)Cc3cc(OC)c4c(c32)CC(C)(C)O4)c1`, the melting point lay within 206 to 207 °C.

In turn, `O=C(Cc1ccc(Cl)cc1)Nc1ccc(O)cc1O` returned a melting point of 178 to 179 °C.

`CCOC(=O)C(Cl)=Cc1cc(NC(=O)CC(C)CC(=O)O)ccc1Cl` (stereo not given) displayed a melting point of 82 to 84 °C.

Turning to `CCCc1nc2c(N)nc3cccnc3c2n1CCCCCC(N)=O`, the melting point fell in the range of 216 to 218 °C.

In turn, `CC(C)c1cccc(C(C)C)c1NC(=O)CNC(c1ccccc1)c1ccc(F)cc1` (stereo not given) returned a melting point of 161 °C.

The molecule `CN(C(=O)Nc1nc(OCC(F)(F)F)cc(OCC(F)(F)F)n1)c1ccc(Br)cc1` yielded a melting point of 110 to 111 °C.

Turning to `c1ccc2cc(CN3CCN(c4nccs4)CC3)ccc2c1`, the melting point lay in the range of 83 to 84 °C.

`O=C(O)CN(CC(=O)O)C(=O)OCC1c2ccccc2-c2ccccc21` gave a melting point of 213 to 216 °C.

As for `CCc1c(-c2ccc(O)cc2)c2ccc3c(N)ccc1n32`, the melting point lay within 147 to 149 °C.

Regarding `COC(=O)Cn1c(CCc2ccccc2)ccc(NC(=O)CCc2ccccc2)c1=O`, the melting point is 105 to 108 °C.

In turn, `O=c1c2cccnc2c(-c2ccccc2)cn1Cc1ccncc1` registered a melting point of 200 °C.

Molecule `Cn1cccc1C1=CC(=O)c2nccnc2C1=O` displayed a melting point of 161 to 162 °C.

The molecule `O=C1CCCN1C1=CC(CF)(CF)Oc2ccc(C(F)(F)F)cc21` registered a melting point of 125 to 127 °C.

On to `C=CCc1c(Br)cc(C(C)(C)c2cc(Br)c(CC=C)c(Br)c2)cc1Br`, for which the melting point was found to be 114 °C.

In turn, `BrCCCCCCCOc1nc(-c2ccccc2)c(-c2ccccc2)n1-c1ccccc1` yielded a melting point of 97 to 99 °C.

Turning to `COC(=O)C(Cc1ccccc1)NC(=O)C(Cc1ccccc1)NC(=O)C(CC(N)=O)NC(=O)CNC(=O)OC(C)(C)C` (stereo not given) (Boc-GNFF-OMe; configuration not given here), the melting point is 211 to 214 °C.

`CSc1c(O[C@H]2CC[C@H](N)CC2)ccc2[nH]ncc12`: the melting point fell in the range of 138 to 140 °C.

Consider `CNc1nc(N(C2CC(C)(C)N(O)C(C)(C)C2)C2CC(C)(C)N(O)C(C)(C)C2)nc(N(C2CC(C)(C)N(O)C(C)(C)C2)C2CC(C)(C)N(O)C(C)(C)C2)n1`, for which the melting point fell in the range of 254 to 257 °C.

With `COc1cccc2c(NCc3ccccc3)nc(N)nc12`, the melting point was in the range of 243 to 245 °C.

With `Cc1ccc(C(=O)Nc2ccccc2)cc1NC(=O)c1cc(Cl)cc(Cl)c1`, the melting point was 202 to 205 °C.

`O=c1[nH]cnc2c1ncn2[C@@H]1C[C@H](O)[C@@H](O)[C@H]1O` (racemic) registered a melting point of 198 to 201 °C.

`CC(C)(C(=O)O)c1ccc(C(=O)CCCN2CCC(OC(c3ccccc3)c3ccccc3)CC2)cc1`: the melting point is 93 to 95 °C.

`CC[C@@H](c1ccccc1)N(Cc1ccc(C(=O)O)cn1)S(=O)(=O)c1ccc(Cl)cc1`: the melting point is 112 to 113 °C.

The molecule `COc1ccccc1Oc1c(NS(=O)(=O)c2ccc(C(C)(C)C)cc2)nc(-c2ncccn2)nc1OCCOc1ccc(C(C)=O)cc1` registered a melting point of 169 to 172 °C.

As for `Cc1cc2cc(Nc3ncnc4cc(-c5ccccc5)sc34)ccc2[nH]1`, the melting point is 218 to 220 °C.

Take `O=C1c2ccccc2C(=O)N1CC(=C(Br)Br)c1ccccc1`: the melting point fell in the range of 154 to 155 °C.

`c1ccc(CN2CCC(Nc3cccnc3)CC2)cc1`: the melting point was in the range of 131 to 133 °C.

On to `COc1cccc(C2(CC(=O)N(C)C)C=CCCC2)c1` (stereo not given), for which the melting point fell in the range of 161 to 162 °C.

In turn, `O=S(=O)(N[C@H]1CC[C@H](CCN2CCN(c3nccc4c3OCC4)CC2)CC1)c1ccc(F)cc1` registered a melting point of 148 °C.

As for `c1ccc(C2CC3(CC(c4ccccc4)N2)OCCO3)cc1` (stereo not given), the melting point lay within 125 to 127 °C.

For `CC(=O)Oc1ccc2cc(NCCCCNC(=O)OC(C)(C)C)c(=O)oc2c1`, the melting point amounted to 120 °C.

For the molecule `COc1cccc(N(C)C(=O)c2ncc(-c3cccc(C)c3)s2)c1`, the melting point was found to be 85 °C.

On to `CCc1nc(C(=O)c2cc(F)c(Cl)cc2Cl)c(C=O)n1C(CC)CC`, for which the melting point lay in the range of 70 to 71 °C.

`COC(=O)c1cc(CCN(C)CCCC(C#N)(c2ccc(OC)c(OC)c2)C(C)C)ccc1OC` (stereo not given): the melting point was 76 to 81 °C.

On to `COC(=O)c1nc2n(c1C(=O)OC)-c1ccc(Cl)cc1C(c1ccccc1F)=NC2`, for which the melting point is 206 to 207 °C.

The molecule `Cc1oc(-c2cccc([N+](=O)[O-])c2)nc1CCl` had a melting point of 111 to 113 °C.

Regarding `CCCCc1oc2ccccc2c1C(O)c1cc(I)c(OCCN(CC)CC)c(I)c1` (stereo not given), the melting point was in the range of 106 to 107 °C.

Turning to `COc1ccc(-c2nnn(-c3ccc(Cl)cc3Cl)c2N)cc1`, the melting point is 149 to 151 °C.

With `O=c1[nH]cccc1-c1ccccc1`, the melting point was in the range of 223 to 229 °C.

As for `CN(C)c1ccc(C(=O)N2CCC(C(c3ccccc3)c3ccccc3)CC2)cc1`, the melting point was in the range of 177 to 179 °C.

`CCOC(=O)c1ncc2[nH]c3ccc(C4CCCCC4)cc3c2c1COC`: the melting point lay in the range of 254 to 266 °C.

In turn, `COC(=O)[C@H](C)N(C(=O)[C@H](CC(C)C)NC(=O)OC(C)(C)C)c1ccc(F)cc1` had a melting point of 121 to 122 °C.

`N#Cc1ncn2c1[C@@H]1CCCN1C(=O)c1c(Cl)cccc1-2` gave a melting point of 237 to 238 °C.

The molecule `CCOc1ccc(CC(C)=O)cc1S(N)(=O)=O` had a melting point of 158 to 159 °C.

Turning to `O=C(O)[C@H](Cc1ccsc1)NN1C(=O)c2ccccc2C1=O`, the melting point was in the range of 166 to 168 °C.

Turning to `CC(Nc1ccc(Oc2ccc(O)cc2)cc1)C(=O)O` (stereo not given), the melting point stood at 188 °C.

As for `O=c1[nH]ncc2[nH]c(-c3ccc(OC(F)F)c(OC4CC4)c3)cc12`, the melting point fell in the range of 287 to 292 °C.
